Results taken from PMC4650696, “Novel anti-thrombotic agent for modulation of protein disulfide isomerase family member ERp57 for prophylactic therapy” (Scientific Reports, 2015).

Columns and labels:
ERp72 [1] = target: T1, ERp72 (Rattus norvegicus, UniProt P38659); assay: NeutrAvidin pull-down from platelet lysate, LC-MS/MS and immunoblot, competed by excess ADTM; format: cell-based
T1 construct: gene Pdia4; endogenous, rat platelet lysate
T1 sequence (P38659 21-643): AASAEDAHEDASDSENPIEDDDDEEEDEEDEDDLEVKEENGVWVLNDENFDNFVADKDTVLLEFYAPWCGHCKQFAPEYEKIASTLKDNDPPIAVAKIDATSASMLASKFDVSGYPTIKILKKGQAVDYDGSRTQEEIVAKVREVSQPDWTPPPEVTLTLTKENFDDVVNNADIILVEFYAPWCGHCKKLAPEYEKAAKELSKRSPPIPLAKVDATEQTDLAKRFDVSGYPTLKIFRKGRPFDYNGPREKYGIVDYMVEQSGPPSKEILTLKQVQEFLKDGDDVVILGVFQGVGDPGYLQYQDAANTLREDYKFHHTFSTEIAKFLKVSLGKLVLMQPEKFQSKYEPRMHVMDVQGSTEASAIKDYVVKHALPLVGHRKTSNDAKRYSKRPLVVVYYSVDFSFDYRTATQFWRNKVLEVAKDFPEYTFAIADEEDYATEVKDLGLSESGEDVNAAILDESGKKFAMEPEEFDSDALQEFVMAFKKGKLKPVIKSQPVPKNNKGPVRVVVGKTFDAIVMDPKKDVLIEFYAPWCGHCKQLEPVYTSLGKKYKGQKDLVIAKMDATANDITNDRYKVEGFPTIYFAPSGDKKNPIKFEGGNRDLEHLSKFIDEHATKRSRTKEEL

ERp5 [2] = target: T2, ERp5 (Rattus norvegicus, UniProt Q63081); assay: as above; format: cell-based
T2 construct: gene Pdia6; endogenous, rat platelet lysate
T2 sequence (Q63081 20-440): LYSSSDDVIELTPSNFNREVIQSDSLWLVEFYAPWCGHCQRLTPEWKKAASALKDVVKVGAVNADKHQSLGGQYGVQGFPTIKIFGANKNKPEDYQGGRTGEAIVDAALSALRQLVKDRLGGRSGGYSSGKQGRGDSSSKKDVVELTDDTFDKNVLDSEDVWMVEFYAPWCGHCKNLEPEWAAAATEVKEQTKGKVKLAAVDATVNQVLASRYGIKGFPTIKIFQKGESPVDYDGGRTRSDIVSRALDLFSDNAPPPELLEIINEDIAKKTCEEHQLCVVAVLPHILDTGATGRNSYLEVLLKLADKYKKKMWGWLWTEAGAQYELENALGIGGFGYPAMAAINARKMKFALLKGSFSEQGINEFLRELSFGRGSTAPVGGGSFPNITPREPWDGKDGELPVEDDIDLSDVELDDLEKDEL

ERp57 [3] = target: T3, ERp57 (Rattus norvegicus, UniProt P11598); assay: as above; format: cell-based
T3 construct: gene Pdia3; endogenous, rat platelet lysate
T3 sequence (P11598 25-505): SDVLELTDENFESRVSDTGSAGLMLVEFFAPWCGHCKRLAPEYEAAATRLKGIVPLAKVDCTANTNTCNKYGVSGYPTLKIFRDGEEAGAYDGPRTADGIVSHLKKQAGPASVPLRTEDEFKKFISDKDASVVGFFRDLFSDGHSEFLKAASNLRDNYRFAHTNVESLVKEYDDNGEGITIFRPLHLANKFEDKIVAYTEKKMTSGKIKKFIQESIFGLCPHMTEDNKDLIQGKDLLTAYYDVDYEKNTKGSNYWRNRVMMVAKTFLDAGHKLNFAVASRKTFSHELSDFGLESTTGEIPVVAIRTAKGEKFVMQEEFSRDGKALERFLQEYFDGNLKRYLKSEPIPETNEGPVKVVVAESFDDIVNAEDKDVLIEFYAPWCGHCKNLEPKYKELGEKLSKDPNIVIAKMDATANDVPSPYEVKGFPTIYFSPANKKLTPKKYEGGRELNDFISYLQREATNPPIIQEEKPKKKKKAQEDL

ERp5 [4] = target: T2, ERp5; assay: competition of BAA pull-down by excess untagged ADTM, immunoblot; […] inhibition of ERp5 activity at […]; format: cell-based
ERp57 [5] = target: T4, ERp57 (Homo sapiens, UniProt P30101); assay: insulin reduction turbidity assay with recombinant ERp57; irreversible after dilution; also competes with BAA in rat platelet lysate pull-down; format: biochemical
T4 construct: gene PDIA3; human recombinant ERp57
T4 sequence (P30101 25-505): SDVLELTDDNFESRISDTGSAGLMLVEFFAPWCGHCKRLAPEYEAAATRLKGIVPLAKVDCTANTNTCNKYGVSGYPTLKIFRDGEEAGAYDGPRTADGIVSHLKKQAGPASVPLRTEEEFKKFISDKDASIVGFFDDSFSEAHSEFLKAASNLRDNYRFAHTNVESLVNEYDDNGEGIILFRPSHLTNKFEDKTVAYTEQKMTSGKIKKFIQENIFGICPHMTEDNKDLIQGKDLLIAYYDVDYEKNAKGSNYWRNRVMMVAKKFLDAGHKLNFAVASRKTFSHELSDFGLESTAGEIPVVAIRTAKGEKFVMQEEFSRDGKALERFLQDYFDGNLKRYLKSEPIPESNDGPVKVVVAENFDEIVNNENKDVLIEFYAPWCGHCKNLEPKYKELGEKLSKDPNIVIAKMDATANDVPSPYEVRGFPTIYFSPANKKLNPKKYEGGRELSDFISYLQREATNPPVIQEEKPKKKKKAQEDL

ERp72 [6] = target: T1, ERp72; assay: competition of BAA pull-down by excess untagged ADTM, immunoblot; only […] inhibition of recombinant ERp72 at […]; format: cell-based
PDI = target: T5, PDI (Homo sapiens, UniProt P07237); assay: insulin reduction turbidity assay with recombinant PDI (weak); format: biochemical
T5 construct: gene P4HB; recombinant PDI
T5 sequence (P07237 18-508): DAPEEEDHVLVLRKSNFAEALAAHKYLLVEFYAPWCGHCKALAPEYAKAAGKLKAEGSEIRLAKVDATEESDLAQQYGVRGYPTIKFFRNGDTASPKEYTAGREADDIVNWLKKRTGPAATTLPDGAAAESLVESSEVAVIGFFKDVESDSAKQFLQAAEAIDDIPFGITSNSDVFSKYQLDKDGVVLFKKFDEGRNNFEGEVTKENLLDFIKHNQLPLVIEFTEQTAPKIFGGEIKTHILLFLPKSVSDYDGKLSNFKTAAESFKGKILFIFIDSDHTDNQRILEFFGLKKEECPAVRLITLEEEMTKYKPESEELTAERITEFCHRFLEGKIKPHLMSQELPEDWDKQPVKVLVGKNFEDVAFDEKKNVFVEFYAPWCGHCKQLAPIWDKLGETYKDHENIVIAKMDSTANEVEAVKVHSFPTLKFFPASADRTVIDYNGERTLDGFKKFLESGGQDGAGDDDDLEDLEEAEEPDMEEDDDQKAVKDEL

Compound	NeutrAvidin pull-down from platelet lysate, LC-MS/MS and immunoblot, competed by (ERp72 [1])	NeutrAvidin pull-down from platelet lysate, LC-MS/MS and immunoblot, competed by (ERp5 [2])	NeutrAvidin pull-down from platelet lysate, LC-MS/MS and immunoblot, competed by (ERp57 [3])	inhibition at 300 µM (ERp5 [4]) [%]	IC50 (ERp57 [5]) [µM]	inhibition at 300 µM (ERp72 [6]) [%]	inhibition at 300 µM (PDI) [%]
O=C1N[C@H]2[C@H](CS[C@H]2CCCCC(=O)O[C@H](Cc2ccc(O)c(O)c2)C(=O)OCc2ccccc2)N1 [BAA]	We confirmed the identity of the pulled-down proteins as ERp72, ERp57 and ERp5 with their respective antibodies	We confirmed the identity of the pulled-down proteins as ERp72, ERp57 and ERp5 with their respective antibodies	specificity of the binding between BAA and these targets (ERp72, ERp57 and ERp5) could be demonstrated by the competition				
CC(=O)Oc1ccc(C[C@@H](OC(C)=O)C(=O)OCc2nc(C)c(C)nc2C)cc1OC(C)=O [ADTM]				38	100 to 300	18	30
